US20250195521A1 (Revolution Medicines, Inc., priority 2020, published 2025)
Like-named read-outs stand apart in the source and are kept apart here.

How the values were obtained:
[1] = target: KRAS G12V (Homo sapiens (Human), UniProt P01116+P62937, G12V); experiment: Ras-Raf disruption/FRET/MOA assay, KRAS G12V; type: biochemical
Source text: (§1) Disruption of B-Raf Ras-Binding Domain (BRAF^RBD) Interaction with K-Ras by Compounds of the Invention (Also Called a FRET Assay or an MOA Assay)
(§2) Note—The following protocol describes a procedure for monitoring disruption of K-Ras G12C (GMP-PNP) binding to BRAF^RBD by a compound of the invention. This protocol may also be executed substituting other Ras proteins or nucleotides, such as K-Ras G12D and K-Ras G13D.
(§3) The purpose of this biochemical assay was to measure the ability of test compounds to facilitate ternary complex formation between a nucleotide-loaded K-Ras isoform and Cyclophilin A; the resulting ternary complex disrupts binding to a BRAF^RBD construct, inhibiting K-Ras signaling through a RAF effector. Data is reported as IC50 values.
(§4) In assay buffer containing 25 mM HEPES pH 7.3, 0.002% Tween20, 0.1% BSA, 100 mM NaCl and 5 mM MgCl2, tagless Cyclophilin A, His6-K-Ras-GMPPNP, and GST-BRAF^RBD were combined in a 384-well assay plate at final concentrations of 25 μM, 12.5 nM, and 50 nM, respectively. Compound was present in plate wells as a 10-point 3-fold dilution series starting at a final concentration of 30 μM. After incubation at 25° C. for 3 hours, a mixture of anti-His Eu—W1024 and anti-GST allophycocyanin was then added to assay sample wells at final concentrations of 10 nM and 50 nM, respectively, and the reaction incubated for an additional 1.5 hours. […] Compounds that facilitate disruption of a K-Ras: RAF complex were identified as those eliciting a decrease in the TR-FRET ratio relative to DMSO control wells.

[2] = target: KRAS G13D (Homo sapiens (Human), UniProt P01116+P62937, G13D); experiment: Ras-Raf disruption/FRET/MOA assay, KRAS G13D; type: biochemical
Source text: as §1, §2, §3, §4

[3] = target: NRAS G12C (Homo sapiens (Human), UniProt P01111+P62937, G12C); experiment: Ras-Raf disruption/FRET/MOA assay, NRAS G12C; type: biochemical
Source text: as §1, §2, §3, §4

[4] = target: KRAS G12S (Homo sapiens (Human), UniProt P01116+P62937, G12S); experiment: Ras-Raf disruption/FRET/MOA assay, KRAS G12S; type: biochemical
Source text: as §1, §2, §3, §4

[5] = target: KRAS G13C (Homo sapiens (Human), UniProt P01116+P62937, G13C); experiment: Ras-Raf disruption/FRET/MOA assay, KRAS G13C; type: biochemical
Source text: as §1, §2, §3, §4

[6] = target: KRAS WT (Homo sapiens (Human), UniProt P01116+P62937); experiment: Ras-Raf disruption/FRET/MOA assay, KRAS WT; type: biochemical
Source text: as §1, §2, §3, §4

[7] = target: KRAS G12C (Homo sapiens (Human), UniProt P01116+P62937, G12C); experiment: Ras-Raf disruption/FRET/MOA assay, KRAS G12C; type: biochemical
Source text: as §1, §2, §3, §4

[8] = target: KRAS G12D (Homo sapiens (Human), UniProt P01116+P62937, G12D); experiment: Ras-Raf disruption/FRET/MOA assay, KRAS G12D; type: biochemical
Source text: as §1, §2, §3, §4

[9] = test system: AsPC-1 (K-Ras G12D); experiment: Potency assay: pERK; type: cell-based, human; settings: Homo sapiens, ASPC1, read-out: pERK EC50
Procedure, shortened: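 Cells plated overnight, then exposed 4 h at 37 °C to 10-point 3-fold dilutions of compound, in duplicate. pERK read by AlphaLISA SureFire Ultra p-ERK1/2 lysate assay or by In-Cell Western (pERK antibody, DRAQ5 DNA normalisation). IC50 from 4-parameter sigmoidal fit of signal vs log concentration.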

[10] = test system: AsPC-1 (K-Ras G12D); experiment: CellTiter-Glo cell viability assay, AsPC-1; type: cell-based, human; settings: Homo sapiens, ASPC1, 120 h, read-out: AsPC-1 Cell Viability IC50
Procedure, shortened: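 Compounds dispensed directly onto seeded K-Ras mutant cells; plates read on day 5 after ~30 min equilibration to room temperature, by CellTiter-Glo luminescence. Signal normalized as (sample/mean DMSO)×100, then fitted to a four-parameter logistic curve.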

[11] = read-out: NRAS G12C FRET data IC50
[12] = read-out: KRAS G12C FRET data IC50

Chain of KRAS G12D (P01116 other isoform, or with tags, fused parts or gaps G12D): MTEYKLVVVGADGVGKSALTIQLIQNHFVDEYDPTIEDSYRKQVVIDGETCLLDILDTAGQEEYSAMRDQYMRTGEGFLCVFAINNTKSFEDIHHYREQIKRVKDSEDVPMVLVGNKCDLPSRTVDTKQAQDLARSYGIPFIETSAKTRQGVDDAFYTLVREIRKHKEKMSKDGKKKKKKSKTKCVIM
Chain of KRAS G12D (P62937 whole entry): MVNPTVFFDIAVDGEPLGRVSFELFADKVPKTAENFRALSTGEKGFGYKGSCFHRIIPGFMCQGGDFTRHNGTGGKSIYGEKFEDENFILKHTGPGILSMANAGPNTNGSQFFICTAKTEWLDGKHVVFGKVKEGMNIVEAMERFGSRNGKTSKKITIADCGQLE
Chain of KRAS G13C (P01116 other isoform, or with tags, fused parts or gaps G13C): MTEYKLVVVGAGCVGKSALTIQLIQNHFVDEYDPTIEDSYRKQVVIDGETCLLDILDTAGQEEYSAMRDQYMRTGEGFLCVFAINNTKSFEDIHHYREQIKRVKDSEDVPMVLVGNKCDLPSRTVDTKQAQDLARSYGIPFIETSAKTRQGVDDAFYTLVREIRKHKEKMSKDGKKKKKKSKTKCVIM
Chain of KRAS G13C (P62937 whole entry): as the sequence (P62937 whole entry) above
Chain of KRAS WT (P01116 other isoform, or with tags, fused parts or gaps): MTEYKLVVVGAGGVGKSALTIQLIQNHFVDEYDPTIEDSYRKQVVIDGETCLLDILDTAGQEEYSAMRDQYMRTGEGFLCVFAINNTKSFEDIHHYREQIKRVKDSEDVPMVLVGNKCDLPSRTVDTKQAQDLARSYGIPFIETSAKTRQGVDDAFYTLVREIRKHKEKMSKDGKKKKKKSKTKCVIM
Chain of KRAS WT (P62937 whole entry): as the sequence (P62937 whole entry) above
Chain of KRAS G12C (P01116-2 other isoform, or with tags, fused parts or gaps G12C): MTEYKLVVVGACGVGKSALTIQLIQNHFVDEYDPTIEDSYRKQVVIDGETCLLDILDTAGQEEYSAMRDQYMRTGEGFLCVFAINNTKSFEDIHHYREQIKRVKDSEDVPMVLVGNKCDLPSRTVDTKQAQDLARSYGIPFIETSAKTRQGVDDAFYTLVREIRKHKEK
Chain of KRAS G12C (P62937 whole entry): as the sequence (P62937 whole entry) above
Chain of KRAS G12V (P01116 other isoform, or with tags, fused parts or gaps G12V): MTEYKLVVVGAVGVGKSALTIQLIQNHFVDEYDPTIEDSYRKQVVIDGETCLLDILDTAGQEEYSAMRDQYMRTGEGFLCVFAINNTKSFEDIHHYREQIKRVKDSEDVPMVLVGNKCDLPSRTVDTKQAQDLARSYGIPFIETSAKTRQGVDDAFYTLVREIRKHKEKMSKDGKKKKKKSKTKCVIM
Chain of KRAS G12V (P62937 whole entry, the tested form may be a part): as the sequence (P62937 whole entry) above
Chain of KRAS G13D (P01116 other isoform, or with tags, fused parts or gaps G13D): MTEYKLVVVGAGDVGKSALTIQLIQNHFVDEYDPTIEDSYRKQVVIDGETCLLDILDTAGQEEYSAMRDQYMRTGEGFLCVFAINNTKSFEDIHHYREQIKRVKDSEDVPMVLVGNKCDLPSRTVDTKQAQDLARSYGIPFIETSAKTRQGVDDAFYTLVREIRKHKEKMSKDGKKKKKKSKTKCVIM
Chain of KRAS G13D (P62937 whole entry): as the sequence (P62937 whole entry) above
Chain of NRAS G12C (P01111 whole entry G12C): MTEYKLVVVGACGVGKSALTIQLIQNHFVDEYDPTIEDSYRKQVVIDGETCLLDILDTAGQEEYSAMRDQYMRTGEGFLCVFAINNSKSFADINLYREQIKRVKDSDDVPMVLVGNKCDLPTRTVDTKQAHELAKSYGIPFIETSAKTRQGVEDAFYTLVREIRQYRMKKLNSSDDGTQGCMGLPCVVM
Chain of NRAS G12C (P62937 whole entry): as the sequence (P62937 whole entry) above
Chain of KRAS G12S (P01116 other isoform, or with tags, fused parts or gaps G12S): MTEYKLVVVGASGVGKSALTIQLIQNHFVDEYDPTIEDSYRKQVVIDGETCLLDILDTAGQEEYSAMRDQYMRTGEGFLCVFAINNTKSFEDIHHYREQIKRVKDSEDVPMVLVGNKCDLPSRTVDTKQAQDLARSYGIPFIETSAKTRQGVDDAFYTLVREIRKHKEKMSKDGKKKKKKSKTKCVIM
Chain of KRAS G12S (P62937 whole entry): as the sequence (P62937 whole entry) above

## CCn1c(-c2cnccc2COC)c2c3cc(ccc31)-c1cc(O)cc(c1)C[C@H](NC(=O)[C@H](C(C)C)N(C)C(=O)N1CCCN(C(=O)[C@@H]3CN3)CC1)C(=O)N1CCC[C@H](N1)C(=O)OCC(C)(C)C2 [Example 45]
[1]; read-out: KRAS G12V FRET IC50
  IC50: 0.1 to 1 µM
[2]; read-out: KRAS G13D FRET IC50
  IC50: 0.1 to 1 µM
[3]; [11]
  IC50: 0.01 to 0.1 µM
[4]; read-out: KRAS G12S FRET IC50
  IC50: 0.1 to 1 µM
[5]; read-out: KRAS G13C FRET IC50
  IC50: 0.01 to 0.1 µM
[6]; read-out: KRAS WT FRET IC50
  IC50: 0.01 to 0.1 µM
[7]; [12]
  IC50: 0.01 to 0.1 µM
[8]; read-out: KRAS G12D FRET IC50
  IC50: 0.1 to 1 µM

## CCn1c(-c2cnccc2COC)c2c3cc(ccc31)-c1cc(O)cc(c1)C[C@H](NC(=O)[C@H](C(C)C)N(C)C(=O)c1ccc(NC(=O)[C@@H]3CN3)cn1)C(=O)N1CCC[C@H](N1)C(=O)OCC(C)(C)C2 [Example 46]
[1]; read-out: KRAS G12V FRET IC50
  IC50: 1 to 10 µM
[2]; read-out: KRAS G13D FRET IC50
  IC50: 1 to 10 µM
[3]; [11]
  IC50: 0.1 to 1 µM
[4]; read-out: KRAS G12S FRET IC50
  IC50: 0.1 to 1 µM
[5]; read-out: KRAS G13C FRET IC50
  IC50: 0.1 to 1 µM
[6]; read-out: KRAS WT FRET IC50
  IC50: 1 to 10 µM
[7]; [12]
  IC50: 0.1 to 1 µM
[8]; read-out: KRAS G12D FRET IC50
  IC50: 1 to 10 µM

## CCn1c(-c2cnccc2COC)c2c3cc(ccc31)-c1cc(O)cc(c1)C[C@H](NC(=O)[C@H](C(C)C)N(C)C(=O)CN(C)C(=O)[C@H]1N[C@H]1C(=O)OC)C(=O)N1CCC[C@H](N1)C(=O)OCC(C)(C)C2 [Example 51]
[1]
  IC50: 0.1 to 1 µM
[2]
  IC50: 0.1 to 1 µM
[3]
  IC50: 0.1 to 1 µM
[4]
  IC50: 0.1 to 1 µM
[5]
  IC50: 0.01 to 0.1 µM
[9]
  EC50: < 5 µM
[6]
  IC50: 0.1 to 1 µM
[7]
  IC50: 0.01 to 0.1 µM
[8]
  IC50: 0.1 to 1 µM
[10]
  IC50: > 10 µM

## CCn1c(-c2cnccc2COC)c2c3cc(ccc31)-c1cc(O)cc(c1)C[C@H](NC(=O)[C@@H](CN(C)C(=O)[C@@H]1CN1)C(C)C)C(=O)N1CCC[C@H](N1)C(=O)OCC(C)(C)C2 [Example 60]
[1]; read-out: KRAS G12V FRET IC50
  IC50: 1 to 10 µM
[2]; read-out: KRAS G13D FRET IC50
  IC50: > 10 µM
[3]; [11]
  IC50: > 10 µM
[4]; read-out: KRAS G12S FRET IC50
  IC50: > 10 µM
[5]; read-out: KRAS G13C FRET IC50
  IC50: > 10 µM
[6]; read-out: KRAS WT FRET IC50
  IC50: > 10 µM
[7]; [12]
  IC50: 1 to 10 µM
[8]; read-out: KRAS G12D FRET IC50
  IC50: > 10 µM

## CCn1c(-c2cnccc2COC)c2c3cc(ccc31)-c1cccc(c1)C[C@H](NC(=O)[C@H](C(C)C)N(C)C(=O)CCN=C=Nc1ccccc1COC)C(=O)N1CCC[C@H](N1)C(=O)OCC(C)(C)C2 [Example 63]
[1]; read-out: KRAS G12V FRET IC50
  IC50: 1 to 10 µM
[2]; read-out: KRAS G13D FRET IC50
  IC50: > 10 µM
[3]; [11]
  IC50: 1 to 10 µM
[4]; read-out: KRAS G12S FRET IC50
  IC50: 1 to 10 µM
[5]; read-out: KRAS G13C FRET IC50
  IC50: 1 to 10 µM
[6]; read-out: KRAS WT FRET IC50
  IC50: 1 to 10 µM
[7]; [12]
  IC50: 1 to 10 µM
[8]; read-out: KRAS G12D FRET IC50
  IC50: 1 to 10 µM

## CCn1c(-c2cnccc2COC)c2c3cc(ccc31)-c1cccc(c1)C[C@H](NC(=O)[C@H](C(C)C)N(C)C(=O)CCN=C=Nc1ccc(N(C)C)cc1)C(=O)N1CCC[C@H](N1)C(=O)OCC(C)(C)C2 [Example 66]
[1]; read-out: KRAS G12V FRET IC50
  IC50: 1 to 10 µM
[2]; read-out: KRAS G13D FRET IC50
  IC50: 1 to 10 µM
[3]; [11]
  IC50: 0.1 to 1 µM
[4]; read-out: KRAS G12S FRET IC50
  IC50: 1 to 10 µM
[5]; read-out: KRAS G13C FRET IC50
  IC50: 0.1 to 1 µM
[6]; read-out: KRAS WT FRET IC50
  IC50: 1 to 10 µM
[7]; [12]
  IC50: 0.1 to 1 µM
[8]; read-out: KRAS G12D FRET IC50
  IC50: 1 to 10 µM

## CCn1c(-c2cnccc2COC)c2c3cc(ccc31)-c1cccc(c1)C[C@H](NC(=O)[C@H](C(C)C)N(C)C(=O)CCN=C=Nc1ccc(N3CCOCC3)cc1)C(=O)N1CCC[C@H](N1)C(=O)OCC(C)(C)C2 [Example 67]
[1]; read-out: KRAS G12V FRET IC50
  IC50: 1 to 10 µM
[2]; read-out: KRAS G13D FRET IC50
  IC50: 1 to 10 µM
[3]; [11]
  IC50: 0.1 to 1 µM
[4]; read-out: KRAS G12S FRET IC50
  IC50: 1 to 10 µM
[5]; read-out: KRAS G13C FRET IC50
  IC50: 1 to 10 µM
[6]; read-out: KRAS WT FRET IC50
  IC50: 1 to 10 µM
[7]; [12]
  IC50: 0.1 to 1 µM
[8]; read-out: KRAS G12D FRET IC50
  IC50: 1 to 10 µM

## CCn1c(-c2cnccc2COC)c2c3cc(ccc31)-c1cccc(c1)C[C@H](NC(=O)[C@H](C(C)C)N(C)C(=O)CCN=C=NCc1c(OC)cccc1OC)C(=O)N1CCC[C@H](N1)C(=O)OCC(C)(C)C2 [Example 75]
[1]; read-out: KRAS G12V FRET IC50
  IC50: 1 to 10 µM
[2]; read-out: KRAS G13D FRET IC50
  IC50: > 10 µM
[3]; [11]
  IC50: 0.1 to 1 µM
[4]; read-out: KRAS G12S FRET IC50
  IC50: > 10 µM
[5]; read-out: KRAS G13C FRET IC50
  IC50: > 10 µM
[6]; read-out: KRAS WT FRET IC50
  IC50: > 10 µM
[7]; [12]
  IC50: 0.1 to 1 µM
[8]; read-out: KRAS G12D FRET IC50
  IC50: > 10 µM
